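Growth conditions: 96-well plates. Treatment: test compound, 48 hours, 5 concentrations. Analysis: linear interpolation between bracketing concentrations; unreached endpoints set to highest concentration. At the GI50, growth is halved. The concentration for full growth arrest is given as TGI.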
Assays:
Experiment in all cases: inhibition of tumour cell growth, NCI panel, 48 h
SK-OV-3 ovarian = system: SK-OV-3 ovarian
ACHN renal = system: ACHN renal
HCT-15 colon = system: HCT-15 colon
RPMI-8226 leukemia = system: RPMI-8226 leukemia
UACC-62 melanoma = system: UACC-62 melanoma
KM12 colon = system: KM12 colon
SNB-19 CNS = system: SNB-19 CNS
MALME-3M melanoma = system: MALME-3M melanoma
IGROV1 ovarian = system: IGROV1 ovarian
OVCAR-4 ovarian = system: OVCAR-4 ovarian
EKVX NSCLC = system: EKVX NSCLC
UACC-257 melanoma = system: UACC-257 melanoma
SF-539 CNS = system: SF-539 CNS
SF-295 CNS = system: SF-295 CNS
NCI-H226 lung = system: NCI-H226 lung
SF-268 CNS = system: SF-268 CNS
SK-MEL-2 melanoma = system: SK-MEL-2 melanoma
CAKI-1 renal = system: CAKI-1 renal
HL-60(TB) leukemia = system: HL-60(TB) leukemia
U251 CNS = system: U251 CNS
M14 melanoma = system: M14 melanoma
MOLT-4 leukemia = system: MOLT-4 leukemia
HS 578T breast = system: HS 578T breast
SNB-75 CNS = system: SNB-75 CNS
SN12C renal = system: SN12C renal
SK-MEL-28 melanoma = system: SK-MEL-28 melanoma
OVCAR-5 ovarian = system: OVCAR-5 ovarian
SK-MEL-5 melanoma = system: SK-MEL-5 melanoma
OVCAR-8 ovarian = system: OVCAR-8 ovarian
HOP-62 NSCLC = system: HOP-62 NSCLC
COLO 205 colon = system: COLO 205 colon
HT29 colon = system: HT29 colon
TK-10 renal = system: TK-10 renal
NCI-H460 lung = system: NCI-H460 lung
RXF 393 renal = system: RXF 393 renal
A549 NSCLC = system: A549 NSCLC
NCI/ADR-RES ovarian = system: NCI/ADR-RES ovarian
CCRF-CEM leukemia = system: CCRF-CEM leukemia
BT-549 breast = system: BT-549 breast
K-562 leukemia = system: K-562 leukemia
HCT-116 colon = system: HCT-116 colon
HCC-2998 colon = system: HCC-2998 colon
LOX IMVI melanoma = system: LOX IMVI melanoma
DU-145 prostate = system: DU-145 prostate
SW-620 colon = system: SW-620 colon
NCI-H23 lung = system: NCI-H23 lung
SR leukemia = system: SR leukemia
A498 renal = system: A498 renal
PC-3 prostate = system: PC-3 prostate
OVCAR-3 ovarian = system: OVCAR-3 ovarian
MDA-MB-231 breast = system: MDA-MB-231 breast
HOP-92 NSCLC = system: HOP-92 NSCLC
MDA-MB-435 = system: MDA-MB-435
786-0 renal = system: 786-0 renal
UO-31 renal = system: UO-31 renal

## C=C1C(=O)O[C@H]2[C@H]1CC/C(Cn1cc(-c3ccc(F)cc3)nn1)=C\CC[C@@]1(C)O[C@@H]21
SK-OV-3 ovarian
  GI50: 9.78 µM
  TGI: 21.4 µM
ACHN renal
  GI50: 0.182 µM
  TGI: 0.445 µM
HCT-15 colon
  GI50: 0.282 µM
  TGI: 1.19 µM
RPMI-8226 leukemia
  GI50: 1.41 µM
  TGI: 4.92 µM
UACC-62 melanoma
  GI50: 1.26 µM
  TGI: 2.65 µM
KM12 colon
  GI50: 1.7 µM
  TGI: 3.43 µM
SNB-19 CNS
  GI50: 3.39 µM
  TGI: 13 µM
MALME-3M melanoma
  GI50: 1.4 µM
  TGI: 2.97 µM
IGROV1 ovarian
  GI50: 1.17 µM
  TGI: 2.64 µM
OVCAR-4 ovarian
  GI50: 1.29 µM
  TGI: 3.03 µM
EKVX NSCLC
  GI50: 1.49 µM
  TGI: 2.97 µM
UACC-257 melanoma
  GI50: 1.47 µM
  TGI: 3 µM
SF-539 CNS
  GI50: 0.271 µM
  TGI: 1.08 µM
SF-295 CNS
  GI50: 5.73 µM
  TGI: 19.1 µM
NCI-H226 lung
  GI50: 2.48 µM
  TGI: 6.74 µM
SF-268 CNS
  GI50: 1.69 µM
  TGI: 3.4 µM
SK-MEL-2 melanoma
  GI50: 1.83 µM
  TGI: 3.94 µM
CAKI-1 renal
  GI50: 1.03 µM
  TGI: 2.23 µM
HL-60(TB) leukemia
  GI50: 0.728 µM
  TGI: 2.76 µM
U251 CNS
  GI50: 2.02 µM
  TGI: 4.43 µM
M14 melanoma
  GI50: 0.944 µM
  TGI: 2.44 µM
MOLT-4 leukemia
  GI50: 0.387 µM
  TGI: 2 µM
HS 578T breast
  GI50: 3.68 µM
  TGI: 22.6 µM
SNB-75 CNS
  GI50: 1.25 µM
  TGI: 2.5 µM
SN12C renal
  GI50: 1.64 µM
  TGI: 3.79 µM
SK-MEL-28 melanoma
  GI50: 0.822 µM
  TGI: 2.21 µM
OVCAR-5 ovarian
  GI50: 1.48 µM
  TGI: 3.13 µM
SK-MEL-5 melanoma
  GI50: 1.74 µM
  TGI: 3.12 µM
OVCAR-8 ovarian
  GI50: 1.66 µM
  TGI: 3.85 µM
HOP-62 NSCLC
  GI50: 3.04 µM
  TGI: 12.1 µM
COLO 205 colon
  GI50: 0.459 µM
  TGI: 1.67 µM
HT29 colon
  GI50: 0.695 µM
  TGI: 2.15 µM
TK-10 renal
  GI50: 1.24 µM
  TGI: 2.53 µM
NCI-H460 lung
  GI50: 3.66 µM
  TGI: 14 µM
RXF 393 renal
  GI50: 0.874 µM
  TGI: 2.13 µM
A549 NSCLC
  GI50: 3.37 µM
  TGI: 12.9 µM
NCI/ADR-RES ovarian
  GI50: 3.05 µM
  TGI: 14 µM
CCRF-CEM leukemia
  GI50: 0.247 µM
  TGI: 0.75 µM
BT-549 breast
  GI50: 0.838 µM
  TGI: 2.13 µM
K-562 leukemia
  GI50: 0.948 µM
  TGI: 4.84 µM
HCT-116 colon
  GI50: 0.295 µM
  TGI: 1.21 µM
HCC-2998 colon
  GI50: 1.74 µM
  TGI: 3.3 µM
LOX IMVI melanoma
  GI50: 0.901 µM
  TGI: 2.22 µM
DU-145 prostate
  GI50: 0.69 µM
  TGI: 1.99 µM
SW-620 colon
  GI50: 0.423 µM
  TGI: 1.54 µM
NCI-H23 lung
  GI50: 1.78 µM
  TGI: 3.71 µM
SR leukemia
  GI50: 0.251 µM
  TGI: 1.18 µM
A498 renal
  GI50: 1.82 µM
  TGI: 3.91 µM
PC-3 prostate
  GI50: 2 µM
  TGI: 4.07 µM
OVCAR-3 ovarian
  GI50: 0.491 µM
  TGI: 1.69 µM
MDA-MB-231 breast
  GI50: 1.22 µM
  TGI: 2.65 µM
HOP-92 NSCLC
  GI50: 0.349 µM
  TGI: 1.12 µM
MDA-MB-435
  GI50: 1 µM
  TGI: 2.39 µM
786-0 renal
  GI50: 1.06 µM
  TGI: 2.36 µM
UO-31 renal
  GI50: 1.22 µM
  TGI: 2.51 µM
